{
  "source": "patent US7851424B2",
  "about": "“Antimicrobial hand wash” (GOJO Industries, Inc., priority 2006, dated 2010)",
  "origin": "cited, not measured here",
  "data": [
    {"smiles": "Oc1cc(Cl)ccc1Oc1ccc(Cl)cc1Cl", "note": "[Triclosan, 2,4,4′-trichloro-2′hydroxy-diphenylether]", "values": [
      {"measurement": "pKa", "value": 7.4}
    ]}
  ]
}
